According to US20090022806A1, “Nanoparticle and polymer formulations for thyroid hormone analogs, antagonists and formulations and uses thereof” (priority 2006, published 2009):

Tests used:
[1] = system: chick chorioallantoic membrane (CAM); test: Chick chorioallantoic membrane (CAM) assay of angiogenesis; format: in vivo; details: 10^−7-10^−9 M
Description: Chorioallantoic membrane (CAM) Model of Angiogenesis: In vivo Neovascularization was examined by methods described previously. 9-12 Ten-day-old chick embryos were purchased from SPAFAS (Preston, Conn.) and incubated at 37° C. with 55% relative humidity. A hypodermic needle was used to make a small hole in the shell concealing the air sac, and a second hole was made on the broad side of the egg, directly over an avascular portion of the embryonic membrane that was identified by candling. A false air sac was created beneath the second hole by the application of negative pressure at the first hole, causing the CAM to separate from the shell. A window approximately 1.0 cm 2 was cut in the shell over the dropped CAM with a small-crafts grinding wheel (Dremel, division of Emerson Electric Co.), allowing direct access to the underlying CAM. FGF2 (1 μg/mL) was used as a standard proangiogenic agent to induce new blood vessel branches on the CAM of 10-day-old embryos. Sterile disks of No. 1 filter paper (Whatman International) were pretreated with 3 mg/mL cortisone acetate and 1 mmol/L PTU and air dried under sterile conditions. Thyroid hormone, hormone analogues, FGF2 or control solvents, and inhibitors were then applied to the disks and the disks allowed to dry. The disks were then suspended in PBS and placed on growing CAMs. […] At 24 hours, the MAPK cascade inhibitor PD 98059 was also added to CAMs topically by means of the filter disks.
After incubation at 37° C. with 55% relative humidity for 3 days, the CAM tissue directly beneath each filter disk was resected from control and treated CAM samples. Tissues were washed 3× with PBS, placed in 35-mm Petri dishes (Nalge Nunc), and examined under an SV6 stereomicroscope (Zeiss) at ×50 magnification. Digital images of CAM sections exposed to filters were collected using a 3-charge-coupled device color video camera system (Toshiba) and analyzed with Image-Pro software (Media Cybernetics). The number of vessel branch points contained in a circular region equal to the area of each filter disk were counted. One image was counted in each CAM preparation, and findings from 8 to 10 CAM preparations were analyzed for each treatment condition (thyroid hormone or analogues, FGF2, FGF2 antibody, PD 98059). In addition, each experiment was performed 3 times. The resulting angiogenesis index is the mean±SEM of new branch points in each set of samples.
Ten-day-old chick embryos were purchased £tom SPAFAS (Preston, Conn.) and were incubated at 37° C. with 55% relative humidity. A hypodermic needle was used to make a small hole in the blunt end of the egg and a second hole was made on the broad side of the egg, directly over an avascular portion of the embryonic membrane. Mild suction was applied to the first hole to displace the air sac and drop the CAM away from the shell. Using a Dremel model craft drill (Dremel, Racine, Wis.), a approx. 1.0 cm^2 window was cut in the shell over the false air sac, allowing access to the CAM. Sterile disks of No. 1 filter paper (Whatman, Clifton, N.J.) were pretreated with 3 mg/ml cortisone acetate and 1 mMm propylthiouracil and air dried under sterile conditions. […] The disks were then suspended in PBS and placed on growing CAMS. After incubation for 3 days, the CAM beneath the filter disk was resected and rinsed with PBS. Each membrane was placed in a 35 mm Petri dish and examined under an SV6 stereo-microscope at 50× magnification. Digital images were captured and analyzed with Image-Pro software (Mediacybemetics). The number of vessel branch points contained in a circular region equal to the filter disk were counted. One image from each of 8-10 CAM preparations for each treatment condition was counted, and in addition each experiment was performed 3 times.
Ten-day-old chick embryos were purchased from SPAFAS (Preston, Conn.) and were incubated at 37° C. with 55% relative humidity. Chick CAM assays were performed as previously described.

[2] = system: phosphorylated ERK1/2 in ECV304 endothelial cells; test: MAPK (ERK1/2) activation in ECV304 cells, nuclear pERK1/2 immunoblot; format: cell-based; details: T4 10^−7 mol/L, 15 minutes to 6 hours
Description: ECV304 endothelial cells were cultured in M199 medium with 0.25% hormone-depleted serum 13 for 2 days. […] Nuclear fractions were pre-pared from all samples by our method reported previously, the proteins separated by polyacrylamide gel electrophoresis, and transferred to membranes for immunoblotting with antibody to phosphorylated ERK 1/2.

[3] = system: platelets; test: Collagen-induced platelet aggregation and secretion in whole blood (impedance); format: cell-based, human; details: 10-100 nM
Description: Platelet aggregation and de-granulation in whole blood using Impedance Technique: The Model 560 Whole-Blood Aggregometer and the associated Aggro-Link Software from the Chrono-Log Corporation were used in this study. Two electrodes are placed in diluted blood and an electrical impulse is sent from one to the other. As the platelets aggregate around the electrodes, the Chrono-Log measures the impedance of the electrical signal in ohms of resistance.
The blood was kept on a rocker to extend the life of the platelets, and experiments were done within 5 hours of phlebotomy.
Procedure: For the control, 500 microliters of whole blood, 500 microliters of 0.9% saline, and a magnetic stir bar were mixed into a cuvette, and heated for five minutes to 37 degrees Celsius. Sub-threshold aggregation was induced with 5 microliters of 1-2 μg/ml Collagen, which the Aggregometer measured for 6-7 minutes. […] Ingerman-Wojenski C, Smith J B, Silver M J. Evaluation of electrical aggregometry: comparison with optical aggregometry, secretion of ATP, and accumulation of radiolabeled platelets. J Lab Clin Med. 1983 January; 101(1):44-52.

[4] = system: EC migration toward the extracellular matrix protein vitronectin; test: Cellular migration assay toward vitronectin (chemotaxis chamber); format: cell-based; details: hormone 0.1 uM in upper chamber, vitronectin 25 ug in lower chamber
Procedure: These assays were performed using a Neuroprobe 96 well disposable chemotaxis chamber with an 8 μm pore size. This chamber allowed for quantitation of cellular migration towards a gradient of either vitronectin or osteopontin. Cultured cells were removed following a standardized method using EDTA/Trypsin (0.01%/0.025%). Following removal, the cells were washed twice and resuspended (2×10^6/ml) in EBM (Endothelial cell basal media, Clonetics Inc.). Add either vitronectin or osteopontin (33 μl) at 0.0125-100 μg/ml to the lower wells of a disposable chemotaxis chamber, and then assemble using the preframed filter. The cell suspension (45 μl) was added to a polypropylene plate containing 5 μl of test agent at different concentrations and incubated for 10 minutes at 22° C. Add 25 μl of cell/test agent suspension to the upper filter wells then incubate overnight (22 hours at 37° C.) in a humidified cell culture incubator. After the overnight incubation, non-migrated cells and excess media were gently removed using a 12 channel pipette and a cell scraper. The filters were then washed twice in PBS (no Ca^+2 or Mg^+2) and fixed with 1% formaldehyde. Membranes of migrated cells were permeated with Triton X-100 (0.2%) then washed 2-3 times with PBS. […] Chemotaxis was quantitatively determined by fluorescence detection using a Cytofluor II (530 excitation/590 emission).

In the case of `N[C@@H](Cc1cc(I)c(Oc2cc(I)c(O)c(I)c2)c(I)c1)C(=O)O` [T4, L-thyroxine], the “promotion of generation of new blood vessels from existing vessels” value [1] is reported as “two- to three-fold”, the “time of maximal phosphorylation and nuclear translocation of ERK1/2” value [2] is reported as 30 min and the “enhancing platelet aggregation and secretion (de-granulation)” value [3] is reported as “effective”. The “Mean EC Migration (Fluorescence Units) + SD” value [4] was 13,083 ± 276 Fluorescence Units.
